Measurements taken from the NIST ThermoML archive (doi:10.1021/je0302001).

Test: mn = molality of the nth substance listed, in mol/kg
Settings: for speed of sound / mass density / viscosity: 101.3 kPa, Liquid; for viscosity: Capillary tube (Ostwald / Ubbelohde) method; for surface tension liquid-gas: Ring tensiometer

O=[N+]([O-])[O-].O=[N+]([O-])[O-].[Zn+2] [nitric acid, zinc salt] + O
Settings	mass density [kg/m3]	speed of sound [m/s]	surface tension liquid-gas [mN/m]	viscosity [mPa·s]
303.15 K, m1 = 2.145	–	1622.9	–	–
303.15 K, m1 = 2.29	–	1632.6	–	–
303.15 K, m1 = 2.292	–	1630.1	–	–
303.15 K, m1 = 2.344	–	1634.7	–	–
303.15 K, m1 = 2.91	–	1664	–	–
303.15 K, m1 = 3.472	–	1691.2	–	–
303.15 K, m1 = 4.075	–	1714.1	–	–
303.15 K, m1 = 4.817	–	1739.4	–	–
303.15 K, m1 = 5.224	–	1748.1	–	–
303.15 K, m1 = 5.797	–	1760.4	–	–
303.15 K, m1 = 6.34	–	1768.2	–	–
303.15 K, m1 = 6.89	–	1772.4	–	–
303.15 K, m1 = 7.349	–	1774	–	–
303.2 K, m1 = 6.89	1705.2	–	–	–
303.25 K, m1 = 5.8	1629.7	–	–	–
303.65 K, m1 = 0.6111	1084.7	–	–	–
303.65 K, m1 = 1.906	1255.3	–	–	–
303.7 K, m1 = 0.3388	1045.4	–	–	–
303.75 K, m1 = 1.113	1154	–	–	–
303.75 K, m1 = 1.258	1173.4	–	–	–
303.75 K, m1 = 4.075	1486.4	–	–	–
303.85 K, m1 = 4.817	1551.9	–	–	–
303.95 K, m1 = 2.29	1300.6	–	–	–
304 K, m1 = 3.472	1428.2	–	–	–
304.15 K, m1 = 5.224	1584.8	–	–	–
304.2 K, m1 = 7.349	1732.6	–	–	–
304.3 K, m1 = 1.551	1210.3	–	–	–
304.3 K, m1 = 2.344	1306.7	–	–	–
304.35 K, m1 = 0.6405	1088.5	–	–	–
304.45 K, m1 = 2.292	1300.6	–	–	–
304.85 K, m1 = 0.1329	1014.5	–	–	–
304.85 K, m1 = 2.91	1369.1	–	–	–
304.85 K, m1 = 6.89	1703.4	–	–	–
305.1 K, m1 = 5.8	1627.9	–	–	–
305.4 K, m1 = 2.145	1282.8	–	–	–
305.45 K, m1 = 6.34	1666.3	–	–	–
305.65 K, m1 = 0.0875	1007.5	–	–	–
305.65 K, m1 = 4.075	1484.9	–	–	–
305.7 K, m1 = 1.906	1254.1	–	–	–
306.1 K, m1 = 1.258	1172	–	–	–
306.15 K, m1 = 2.29	1299.2	–	–	–
306.25 K, m1 = 0.2466	1031	–	–	–
306.25 K, m1 = 1.113	1152.7	–	–	–
306.3 K, m1 = 2.344	1305.3	–	–	–
306.35 K, m1 = 0.6111	1083.6	–	–	–
306.35 K, m1 = 2.292	1299.4	–	–	–
306.55 K, m1 = 1.551	1209.4	–	–	–
306.6 K, m1 = 0.3388	1044.3	–	–	–
306.75 K, m1 = 2.91	1367.8	–	–	–
307.05 K, m1 = 0.6405	1087.4	–	–	–
307.35 K, m1 = 2.145	1281.5	–	–	–
307.5 K, m1 = 4.817	1548.6	–	–	–
307.55 K, m1 = 4.075	1483.4	–	–	–
307.55 K, m1 = 7.349	1729.2	–	–	–
307.75 K, m1 = 3.472	1425.1	–	–	–
307.75 K, m1 = 5.224	1581.5	–	–	–
307.85 K, m1 = 0.1329	1013.4	–	–	–
307.9 K, m1 = 1.906	1252.7	–	–	–
308.15 K, m1 = 0.0875	–	1525.6	–	–
308.15 K, m1 = 0.1329	–	1523.4	–	0.76
308.15 K, m1 = 0.2466	–	1527.9	–	0.787
308.15 K, m1 = 0.3388	–	1532.5	–	0.809
308.15 K, m1 = 0.6111	–	1543.7	–	0.884
308.15 K, m1 = 0.6405	–	1544.7	–	0.892
308.15 K, m1 = 1.113	–	1566.6	–	1.044
308.15 K, m1 = 1.258	–	1576.6	–	1.107
308.15 K, m1 = 1.551	–	1592.5	–	1.216
308.15 K, m1 = 1.906	–	1612.5	–	1.405
308.15 K, m1 = 2.145	–	1624.2	–	1.548
308.15 K, m1 = 2.29	–	1632.3	–	1.622
308.15 K, m1 = 2.292	–	1630.7	–	–
308.15 K, m1 = 2.344	–	1635	–	1.645
308.15 K, m1 = 2.91	–	1662.2	–	2.035
308.15 K, m1 = 3.472	–	1687	–	2.554
308.15 K, m1 = 4.075	–	1708.9	–	3.149
308.15 K, m1 = 4.817	–	1733.1	–	4.24
308.15 K, m1 = 5.224	–	1740.5	–	4.878
308.15 K, m1 = 5.797	–	1751.6	–	6.183
308.15 K, m1 = 6.34	–	1757.7	–	7.469
308.15 K, m1 = 6.89	–	1762.2	–	9.274
308.15 K, m1 = 7.349	–	1762.6	–	10.94
308.25 K, m1 = 2.344	1303.9	–	–	–
308.3 K, m1 = 1.258	1170.8	–	–	–
308.35 K, m1 = 1.113	1151.6	–	–	–
308.35 K, m1 = 6.89	1699.9	–	–	–
308.6 K, m1 = 1.551	1208.2	–	–	–
308.75 K, m1 = 0.0875	1006.4	–	–	–
308.75 K, m1 = 5.8	1624.4	–	–	–
308.85 K, m1 = 2.91	1366.3	–	–	–
309.05 K, m1 = 0.6111	1082.4	–	–	–
309.1 K, m1 = 6.34	1662.7	–	–	–
309.15 K, m1 = 0.2466	1029.9	–	–	–
309.35 K, m1 = 4.817	1546.9	–	–	–
309.4 K, m1 = 0.3388	1043.2	–	–	–
309.45 K, m1 = 0.6405	1086.3	–	–	–
309.45 K, m1 = 2.145	1280.1	–	–	–
309.55 K, m1 = 3.472	1423.6	–	–	–
309.55 K, m1 = 5.224	1579.9	–	–	–
310.1 K, m1 = 2.29	1296.5	–	–	–
310.35 K, m1 = 2.344	1302.6	–	–	–
310.45 K, m1 = 1.258	1169.6	–	–	–
310.45 K, m1 = 2.292	1296.6	–	–	–
310.45 K, m1 = 5.8	1622.9	–	–	–
310.7 K, m1 = 1.113	1150.3	–	–	–
310.7 K, m1 = 2.91	1364.9	–	–	–
310.75 K, m1 = 0.1329	1012.3	–	–	–
310.75 K, m1 = 6.34	1661.1	–	–	–
310.8 K, m1 = 7.764	1749.7	–	–	–
310.85 K, m1 = 1.551	1206.9	–	–	–
310.95 K, m1 = 7.349	1725.6	–	–	–
311.15 K, m1 = 4.817	1545.4	–	–	–
311.25 K, m1 = 5.224	1578.2	–	–	–
311.35 K, m1 = 0.6111	1081.4	–	–	–
311.35 K, m1 = 3.472	1422.1	–	–	–
311.35 K, m1 = 4.075	1480.4	–	–	–
311.4 K, m1 = 2.145	1278.8	–	–	–
311.5 K, m1 = 0.0875	1005.4	–	–	–
311.7 K, m1 = 6.89	1696.5	–	–	–
311.85 K, m1 = 0.2466	1028.8	–	–	–
311.85 K, m1 = 0.3388	1042.2	–	–	–
311.9 K, m1 = 0.6405	1085.1	–	–	–
311.9 K, m1 = 1.906	1250.1	–	–	–
312 K, m1 = 2.29	1295.1	–	–	–
312.25 K, m1 = 5.8	1621	–	–	–
312.35 K, m1 = 2.292	1295.2	–	–	–
312.55 K, m1 = 6.34	1659.2	–	–	–
312.7 K, m1 = 1.258	1168.4	–	–	–
312.85 K, m1 = 1.113	1149.1	–	–	–
312.95 K, m1 = 1.551	1205.6	–	–	–
313.05 K, m1 = 5.224	1576.6	–	–	–
313.15 K, m1 = 0.0875	–	1533.4	–	–
313.15 K, m1 = 0.1329	–	1531.7	–	0.691
313.15 K, m1 = 0.2263	–	–	70.59	–
313.15 K, m1 = 0.2466	–	1535.7	–	0.716
313.15 K, m1 = 0.334	–	–	70.83	–
313.15 K, m1 = 0.3388	–	–	–	0.739
313.15 K, m1 = 0.6111	–	–	–	0.805
313.15 K, m1 = 0.6198	–	–	71.5	–
313.15 K, m1 = 0.6405	–	–	–	0.813
313.15 K, m1 = 0.8228	–	–	72.2	–
313.15 K, m1 = 1.113	–	–	–	0.952
313.15 K, m1 = 1.258	–	–	–	1.01
313.15 K, m1 = 1.259	–	–	73.37	–
313.15 K, m1 = 1.549	–	–	74.1	–
313.15 K, m1 = 1.551	–	–	–	1.106
313.15 K, m1 = 1.818	–	–	74.61	–
313.15 K, m1 = 1.906	–	–	–	1.277
313.15 K, m1 = 2.145	–	–	–	1.408
313.15 K, m1 = 2.222	–	–	76.05	–
313.15 K, m1 = 2.29	–	–	–	1.475
313.15 K, m1 = 2.344	–	–	–	1.495
313.15 K, m1 = 2.526	–	–	77.02	–
313.15 K, m1 = 2.721	–	–	77.55	–
313.15 K, m1 = 2.91	–	–	–	1.843
313.15 K, m1 = 3.426	–	–	79.09	–
313.15 K, m1 = 3.472	–	–	–	2.305
313.15 K, m1 = 4.011	–	–	80.79	–
313.15 K, m1 = 4.075	–	–	–	2.868
313.15 K, m1 = 4.231	–	–	81.05	–
313.15 K, m1 = 4.817	–	–	–	3.774
313.15 K, m1 = 5.133	–	–	83.04	–
313.15 K, m1 = 5.224	–	–	–	4.322
313.15 K, m1 = 5.797	–	–	–	5.432
313.15 K, m1 = 6.245	–	–	84.64	–
313.15 K, m1 = 6.34	–	–	–	6.509
313.15 K, m1 = 6.89	–	–	–	7.997
313.15 K, m1 = 7.349	–	–	–	9.383
